± gives the standard deviation of the averaged measurements.
Legend:
[1] = compound: Cn1ncnc1[C@H]1c2n[nH]c(=O)c3cc(F)cc(c23)N[C@@H]1c1ccc(F)cc1 [BMN-673]; test: surviving fraction relative to DMSO-only wells; higher = less growth inhibition; details: exposure time: 5 days
Method in brief: (§1)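 In 384-well plates, 250–500 log-phase tumour cells per well were given 24 hours before five days of continuous exposure to inhibitors at 0.5, 1, 5, 10, 50, 100, 500 and 1000 nM. Surviving fraction is luminescence from CellTiter-Glo, normalised to the median of wells containing DMSO alone. Reading took place after 10 minutes at room temperature.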

[2] = compound: O=C(CCCCCCC(=O)Nc1ccccc1)NO [VORINOSTAT]; test: as above; details: exposure time: 5 days
Method in brief: as §1

[3] = compound: C=CCn1c(=O)c2cnc(Nc3ccc(N4CCN(C)CC4)cc3)nc2n1-c1cccc(C(C)(C)O)n1 [MK-1775]; test: area under dose-response curve of surviving fraction (unscaled, Aref=0) (surviving fraction x log10(nM)); higher = more resistant; details: exposure time: 5 days; dose range 0.5-1000 nM
Method in brief: (§2)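 Three screens per tumour cell line were run in 384-well plates at eight inhibitor concentrations from 0.5 to 1000 nM over five days. Surviving fractions, from CellTiter-Glo luminescence normalised to DMSO-only wells, were fitted with 3-parameter logistic curves in the drc R package. The reported area under the curve is the unscaled activity area. It spans log10 dose, and Aref is 0.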

[4] = compound: CCc1cc(Nc2nccc(-c3c(-c4ccc(OC)c(C(=O)Nc5c(F)cccc5F)c4)nc4ccccn34)n2)c(OC)cc1N1CCC(N2CCN(S(C)(=O)=O)CC2)CC1; test: as above; details: exposure time: 5 days; dose range 0.5-1000 nM
Method in brief: as §2

[5] = compound: Cc1c(N)nc([C@H](CC(N)=O)NC[C@H](N)C(N)=O)nc1C(=O)N[C@H](C(=O)N[C@H](C)[C@@H](O)[C@H](C)C(=O)N[C@H](C(=O)NCCc1nc(-c2nc(C(=O)NCCC[S+](C)C)cs2)cs1)[C@@H](C)O)[C@@H](OC1OC(CO)C(O)C(O)C1OC1OC(CO)C(O)C(OC(N)=O)C1O)c1cnc[nH]1 [BLEOMYCIN]; test: as above; details: exposure time: 5 days; dose range 0.5-1000 nM
Method in brief: as §2

[6] = compound: Cc1ccc(NC(=O)c2ccc(CN3CCN(C)CC3)cc2)cc1Nc1nccc(-c2cccnc2)n1 [IMATINIB]; test: as above; details: exposure time: 5 days; dose range 0.5-1000 nM
Method in brief: as §2

Test System | surviving fraction ([1]; 0.5 nM) | surviving fraction ([1]; 1 nM) | surviving fraction ([1]; 5 nM) | surviving fraction ([1]; 10 nM) | surviving fraction ([1]; 50 nM) | surviving fraction ([1]; 100 nM) | surviving fraction ([1]; 500 nM) | surviving fraction ([1]; 1000 nM) | surviving fraction ([2]; 0.5 nM) | surviving fraction ([2]; 1 nM) | surviving fraction ([2]; 5 nM) | surviving fraction ([2]; 10 nM) | surviving fraction ([2]; 50 nM) | surviving fraction ([2]; 100 nM) | surviving fraction ([2]; 500 nM) | surviving fraction ([2]; 1000 nM) | area under dose-response curve [3] | area under dose-response curve [4] | area under dose-response curve [5] | area under dose-response curve [6]
G292 BONE | 1.02 ± 0.058 | 0.933 ± 0.033 | 0.923 ± 0.041 | 0.846 ± 0.048 | 0.732 ± 0.045 | 0.698 ± 0.016 | 0.54 ± 0.035 | 0.459 ± 0.015 | 1.02 ± 0.027 | 0.995 ± 0.029 | 0.982 ± 0.046 | 1.04 ± 0.047 | 0.979 ± 0.04 | 0.947 ± 0.036 | 0.691 ± 0.032 | 0.511 ± 0.03 | 2.71 | 3.33 | 2.07 | 3.31
HCC38 BREAST | 1.06 ± 0.11 | 0.92 ± 0.2 | 0.778 ± 0.14 | 0.603 ± 0.11 | 0.585 ± 0.084 | 0.43 ± 0.065 | 0.301 ± 0.046 | 0.253 ± 0.031 | 1.25 ± 0.035 | 1.25 ± 0.028 | 1.27 ± 0.15 | 1.24 ± 0.097 | 1.42 ± 0.26 | 1.23 ± 0.21 | 1.06 ± 0.066 | 0.633 ± 0.11 | 2.33 | – | 2.44 | –
HCC70 BREAST | 1.05 ± 0.11 | 1.05 ± 0.11 | 1.12 ± 0.069 | 0.977 ± 0.065 | 0.789 ± 0.054 | 0.657 ± 0.074 | 0.411 ± 0.1 | 0.341 ± 0.022 | 0.965 ± 0.061 | 0.963 ± 0.042 | 1 ± 0.054 | 1.02 ± 0.11 | 1.06 ± 0.094 | 0.973 ± 0.073 | 0.766 ± 0.037 | 0.496 ± 0.049 | 2.24 | 3.48 | 2.77 | 3.79
HMLE3 BREAST | 1.08 ± 0.048 | 1.11 ± 0.053 | 1 ± 0.2 | 0.902 ± 0.1 | 0.644 ± 0.035 | 0.604 ± 0.03 | 0.339 ± 0.056 | 0.277 ± 0.036 | 0.914 ± 0.067 | 0.95 ± 0.038 | 1.11 ± 0.03 | 1.01 ± 0.095 | 1.04 ± 0.042 | 1.09 ± 0.049 | 0.982 ± 0.066 | 0.702 ± 0.073 | 2.87 | 3.22 | 3 | 3.75
HMT3552 BREAST | 1.01 ± 0.064 | 0.943 ± 0.036 | 0.889 ± 0.047 | 0.775 ± 0.073 | 0.713 ± 0.063 | 0.574 ± 0.01 | 0.375 ± 0.026 | 0.264 ± 0.0075 | 0.95 | 1.12 | 1.03 | 1.01 | 1.09 | 1.14 | 0.656 | 0.329 | – | – | – | 3.57
HS57T BREAST | 1.04 ± 0.03 | 0.984 ± 0.037 | 1.04 ± 0.076 | 1.03 ± 0.076 | 0.969 ± 0.084 | 0.82 ± 0.074 | 0.619 ± 0.057 | 0.513 ± 0.04 | 0.935 ± 0.066 | 0.992 ± 0.038 | 1.01 ± 0.073 | 1.071 ± 0.009 | 1.04 ± 0.052 | 0.995 ± 0.056 | 0.804 ± 0.049 | 0.475 ± 0.026 | – | – | – | –
HS578T BREAST | 1.02 ± 0.035 | 1.14 ± 0.14 | 1.05 ± 0.091 | 0.958 ± 0.12 | 0.902 ± 0.075 | 0.841 ± 0.043 | 0.669 ± 0.076 | 0.61 ± 0.087 | 0.951 ± 0.12 | 0.888 ± 0.12 | 0.922 ± 0.2 | 0.989 ± 0.11 | 0.945 ± 0.2 | 0.821 ± 0.068 | 0.569 ± 0.08 | 0.347 ± 0.034 | 1.96 | 2.93 | 2.21 | 3.7
